Patent publication US20240285586A1, “METHODS FOR TREATING BACTERIAL CELL POPULATIONS” (THE HONG KONG POLYTECHNIC UNIVERSITY, priority 2021, published 2024)
Converted amounts (≈) assume the structure as drawn.

Experiments:
E. coli BW25113 [1] = test: Starvation-induced tolerance assay, wild type E. coli; type: cell-based, Escherichia coli
Protocol: (§1) Tolerance assay. […] Standard serial dilution and plating on LB agar was performed before and after ampicillin treatment for 4 hrs, 2 days, 4 days and 6 days to determine the fraction of the test population that survived at different time points during the course of treatment.
(§2) Standard serial dilution and plating on LB agar was performed on samples collected every 24 hrs to assess changes in the size of the sub-population that survived during the treatment process.
(§3) Upon reaching the exponential phase, bacteria were washed and re-suspended in saline (0.9% NaCl), and then incubated at 37° C. under constant shaking (250 rpm/min) for 24 hrs. […] Standard serial dilution and plating on LB agar were performed before and after ampicillin treatment for 4 hrs, 1 day, 2 days and 4 days to determine the fraction of the test population that survived at different time points during the course of treatment.

K. pneumoniae = test: Starvation-induced tolerance assay, K. pneumoniae; type: cell-based, Klebsiella pneumoniae
Protocol: as §1, §2, §3

A. baumannii = test: Starvation-induced tolerance assay, A. baumannii; type: cell-based, Acinetobacter baumannii
Protocol: as §1, §2, §3

P. aeruginosa [2] = test: Starvation-induced tolerance assay, P. aeruginosa; type: cell-based, Pseudomonas aeruginosa
Protocol: as §1, §2, §3

S. aureus [3] = test: Starvation-induced tolerance assay, S. aureus; type: cell-based, Staphylococcus aureus
Protocol: as §1, §2, §3

S. typhimurium = test: Starvation-induced tolerance assay, S. typhimurium; type: cell-based
Protocol: as §1, §2, §3

[4] = test system: carbapenem resistant E. coli J53 strain which expressed the carbapenemase NDM-1; test: Starvation-induced tolerance assay, carbapenem-resistant E. coli; type: cell-based, Escherichia coli; conditions: econazole + sub-lethal dose of meropenem (40 μg/ml), nutrient starvation
Protocol: Upon reaching the exponential phase, bacteria were washed and re-suspended in saline (0.9% NaCl), and then incubated at 37° C. under constant shaking (250 rpm/min) for 24 hrs. […]

S. aureus ATCC29213 = test: Minimal inhibitory concentration, S. aureus; type: cell-based; conditions: Staphylococcus aureus, 16 hours, Mueller Hinton Broth
Source text: (§4) Determination of Minimal Inhibitory Concentrations (MICs).

Gram negative strains = test: Minimal inhibitory concentration, Gram negative strains; type: cell-based; conditions: all Gram negative test strains
Source text: as §4

E. coli = test: Membrane potential assay DiSC3(5), E. coli; type: cell-based, Escherichia coli; conditions: econazole 40 μM, cells starved 24 hrs
Protocol: Membrane potential assay. The transmembrane electrical potential was measured by using a membrane potential-sensitive probe, DiSC3(5). Bacterial population in either the exponential phase (OD600 of 0.2) or under 24 hrs starvation (resuspended in saline) were collected by centrifugation (6000×g, 2 mins), washed twice and re-suspended in PBS (pH 7.4), and then adjusted to OD600 of 0.2. KCl and DiSC3(5) were added until final concentration of 100 mM and 1 μM was respectively reached, followed by incubation at room temperature for 25 mins in the dark to allow the dye to penetrate through the outer membrane and produce a quenching effect. […] The fluorescence reading was monitored by using a Clariostar Microplate Reader (BMG LABTECH) at an excitation wavelength of 622±10 nm and an emission wavelength of 670±10 nm for 10 mins. Upon depolarization, the dye was rapidly released into the medium, resulting in dequenching and facilitating detection fluorometrically. […] The sample preparation method is same as that prior to testing with the Microplate Reader except for the last step. Briefly, cells were washed with PBS three times before confocal observation to remove extracellular DiSC3(5) dye. […] DiSC3(5) was excited by 638 nm laser and fluorescence was detected by HyD detector at emission wavelength 675±25 nm. The images were acquired and analyzed by the Leica Application Suite X (LAS X) software. […]

S. aureus [5] = test: Membrane potential assay DiSC3(5), S. aureus; type: cell-based, Staphylococcus aureus; conditions: econazole 40 μM, cells starved 24 hrs
Protocol: (§5) Assessment of effect of econazole on membrane potential. Fluorometric measurement of membrane potential of bacterial cells was performed using the voltage-sensitive dye DiSC3(5). The test organisms were first subjected to starvation for 24 hrs and then centrifuged and washed twice with PBS. The cell pellet was resuspended in PBS containing 100 mM of KCl to a final concentration of OD 0.2. The cells were incubated with 1 μM of DiSC3(5) for 5 min under shaking in dark. The cells were treated with econazole (40 μM); a no treatment control was included. The fluorometric measurements were carried out on black polystyrene microtiter plates using a Clariostar Microplate Reader (BMG LABTECH), with excitation wavelength at 610 nm and emission wavelength at 660 nm.

P. aeruginosa [6] = test: Membrane potential assay DiSC3(5), P. aeruginosa; type: cell-based, Pseudomonas aeruginosa; conditions: econazole 40 μM, cells starved 24 hrs
Protocol: as §5

E. coli tolerant cells = test: Scanning electron microscopy of tolerant cells; type: cell-based, Escherichia coli; conditions: for cell morphology under SEM: 24 hours
Protocol: Electron microscopy analysis. E. coli which had been subjected to starvation for 24 hours were treated with econazole alone, ampicillin alone and a combination of econazole and ampicillin for 24 hours, followed by examination under scanning electron microscopy (SEM). Cells treated with saline were included as negative control. Briefly, bacterial cells were fixed in 0.4% polyoxymethylene overnight and then in Osmium tetroxide (OsO4) for 2 hrs, followed by washing for three times with PBS. The cells were then dehydrated using pure ethanol, and infiltrated and embedded in Spurr resin for examination by SEM.

E. coli BW25113 [7] = test: Mouse deep-seated thigh infection model; type: in vivo, Escherichia coli
Protocol: NIH mice were purchased from the Guangdong Center for Experimental Animals, Guangzhou, China. Male mice at ˜6 weeks of age with a weight of ˜20 g were used in the experiments, 6 mice per group. The animals were allowed to acclimate to the housing facility for 5 days. The mice were made neutropenic by administering 150 mg/kg cyclophosphamide 3 days and 1 day before infection. An inoculum of 1×10^6 CFU of E. coli BW25113 was injected into the right thigh of the mouse. At 24 hrs post-infection, the mice in each group received ceftazidime (20 mg/kg), econazole (20 mg/kg) or ceftazidime combining econazole treatment (i.p.) every 12 hrs for 72 hrs randomly. The mice were then euthanized and the infected thighs were aseptically excised and homogenized in PBS; the number of E. coli present in the samples was enumerated by serial dilution, spreading on LB plates, and incubation at 37° C. overnight. The population size of bacteria that survived different treatments was recorded, compared and analyzed by one-way ANOVA and post hoc Tukey test. The data were presented by using the Graph Pad Prism software. All experimental protocols followed the standard operating procedures of the Biosafety level 2 animal facilities approved by the Animal Ethics Committee of The City University of Hong Kong.

S. typhimurium PY1 = test: Mouse peritonitis infection (tolerance sepsis) model; type: in vivo
Protocol: NIH male mice of about six-weeks-old with body weight of ˜20 g were used, 6 mice per group. The animals were allowed to acclimate to the housing facility for 5 days. The mice were made neutropenic by administering 150 mg/kg cyclophosphamide 3 days and 1 day before infection. Different amounts of S. typhimurium strain PY01 (2.8×10^5 CFU, 7.6×10^5 CFU or 1.5×10^6 CFU) were inoculated into the animals via intraperitoneal injection. The mice were subjected to ceftazidime (20 mg/kg), econazole (20 mg/kg) or ceftazidime combining econazole treatment (i.p.) 24 h after inoculation, at 12 hrs intervals for 72 hrs randomly. The mortality rate of the test mice was recorded every 12 hrs. After 72 h of treatment, live mice were euthanized and subjected to peritoneal washes which involved injection of 2 mL of saline into the intraperitoneal space, followed by abdominal massage. The abdomen was then cut open and 200 μL of peritoneal fluid were collected and serially diluted in saline. A 100 μL portion of each dilution was spread on LB plates, followed by incubation overnight at 37° C. Colonies were counted to determine the bacterial load in the test samples, which were expressed as CFU/ml. Statistical analysis and ethic approval were the same as described above.

E. coli J53 (mcr-1) = test: MIC of colistin in presence and absence of compound, broth dilution; type: cell-based, Escherichia coli; conditions: antibiotic resistant E. coli (FIG. 20)
[8] = general statement; cited from earlier work

Clc1ccc(COC(Cn2ccnc2)c2ccc(Cl)cc2Cl)cc1 (stereo not drawn) [econazole]
time to eradication of the entire tolerant population (E. coli BW25113 [1]; econazole 40 μM + ampicillin 10×MIC): 24 h | effect of co-administration with ampicillin (E. coli BW25113 [1]; econazole + ampicillin, E. coli): pronounced bactericidal synergistic effect | treatment time at which all tolerant cells were killed (E. coli BW25113 [1]; econazole + ciprofloxacin (1 μg/ml)): 24 h | size of bacterial population that survived (E. coli BW25113 [1]; econazole + ciprofloxacin (1 μg/ml), 4 hrs): about 200 CFU/mL | treatment time at which all tolerant cells were killed (E. coli BW25113 [1]; econazole + gentamicin (20 μg/ml)): 24 h | size of bacterial population that survived (E. coli BW25113 [1]; econazole + gentamicin (20 μg/ml), 4 hrs): about 200 CFU/mL | size of the population that survived (E. coli BW25113 [1]; econazole alone, 4 hrs): about 1.7×10^5 CFU/mL | population size (E. coli BW25113 [1]; econazole alone, 24 hrs): ~1×10^4 CFU/mL | effect of co-administration with ampicillin (K. pneumoniae; econazole + ampicillin): pronounced bactericidal synergistic effect | time to eradication of the entire tolerant sub-population (K. pneumoniae; econazole + ampicillin): ≤ 24 h | killing of tolerant cells (K. pneumoniae; econazole alone, 40 μM): slight killing effect | effect of co-administration with ampicillin (A. baumannii; econazole + ampicillin): pronounced bactericidal synergistic effect | time to eradication of the entire tolerant sub-population (A. baumannii; econazole + ampicillin): ≤ 24 h | killing of tolerant cells (A. baumannii; econazole alone, 40 μM): slight killing effect | effect of co-administration with ampicillin (P. aeruginosa [2]; econazole + ampicillin): pronounced bactericidal synergistic effect | time to eradication of the tolerant sub-population (P. aeruginosa [2]; econazole + ampicillin): ≤ 96 h | killing of tolerant cells (P. aeruginosa [2]; econazole alone, 40 μM): slight killing effect | effect of co-administration with ampicillin (S. aureus [3]; econazole + ampicillin): pronounced bactericidal synergistic effect | time to eradication of tolerant cells (S. aureus [3]; econazole alone, 40 μM): ≤ 96 h | effect of co-administration with ampicillin (S. typhimurium; econazole + ampicillin): pronounced bactericidal synergistic effect | time to eradication of the tolerant sub-population (S. typhimurium; econazole + ampicillin): ≤ 96 h | size of the tolerant population (S. typhimurium; econazole + ceftazidime (100 μg/ml), within 96 hrs (FIG. 16F)): ~500 CFU/mL | killing of tolerant cells (S. typhimurium; econazole alone, 40 μM): slight killing effect | effect on the tolerant sub-population [4]: eradicate the tolerant sub-population | MIC (S. aureus ATCC29213): 40 µM (≈ 15.3 µg/mL) | MIC (Gram negative strains): > 160 µM | effect on PMF (DiSC3(5) fluorescence) (E. coli): caused dissipation of PMF | effect on PMF (DiSC3(5) fluorescence) (S. aureus [5]): caused dissipation of PMF | effect on PMF (DiSC3(5) fluorescence) (P. aeruginosa [6]): caused dissipation of PMF | cell morphology under SEM (E. coli tolerant cells; econazole 40 μM + ampicillin 100 μg/ml): cell membrane structure was severely damaged | cell morphology under SEM (E. coli tolerant cells; econazole 40 μM alone): rough cell surface, as well as leakage of intracellular material | membrane damage or morphological changes (E. coli tolerant cells; econazole, exponentially growing cells (data not shown)): not found to cause any detectable membrane damage or morphological changes | eradication of E. coli tolerant cells compared with ceftazidime (20 mg/Kg) alone (E. coli BW25113 [7]; econazole 20 mg/kg + ceftazidime 20 mg/Kg i.p. every 12 hrs for 72 hrs, P=0.031): significantly more | eradication of E. coli tolerant cells compared with ceftazidime (20 mg/Kg) alone (E. coli BW25113 [7]; econazole alone 20 mg/kg i.p. every 12 hrs for 72 hrs, P=0.026): significantly more | protection of the test animals compared with ceftazidime alone (S. typhimurium PY1; ceftazidime + econazole (20 mg/kg each), inoculation of 7.6×10^5 CFU): slightly more effective | rate of eradication of PY1 tolerant cells in surviving mice (S. typhimurium PY1; ceftazidime + econazole, 7.6×10^5 CFU, after 72 h, P<0.0001): significantly higher | survival rate (S. typhimurium PY1; econazole 20 mg/kg + ceftazidime 20 mg/Kg, 1.5×10^6 CFU): 80% | effect of co-administration with colistin (E. coli J53 (mcr-1)): bactericidal synergistic effect | toxicity or safety in human [8]: proven safe
